Columns and labels:
[1] = tested on: rat ventral mesencephalan dopaminergic neurons; assay: [3H]Dopamine cell culture assay (6-OHDA neurotoxicity); format: cell-based; details: 6-OHDA 30 μM, uptake 22 hrs after exposure
Protocol: Cultures of dopaminergic neurons were prepared according to a modification of the procedure described by Raymon and Leslie (J. Neurochem. 62:1015-1024, 1994). Time-mated pregnant rats were sacrificed on embyronic day 14-15 (crown rump length 11-12 mm) and the embryos removed by cesarean section. The ventral mesencephalon, containing the dopaminergic neurons, was dissected from each embryo. Tissue pieces from approximately 48 embryos were pooled and dissociated both enzymatically and mechanically. An aliquot from the resulting cell suspension was counted and the cells were plated in high glucose DMEM/F12 culture medium with 10% fetal bovine serum at a density of 1×10^5 cells/well of a Biocoat poly-D-lysine-coated 96-well plate. The day following plating was considered 1 day in vitro (DIV). Cells were maintained in a stable environment at 37° C., 95% humidity, and 5% CO2. A partial medium change was performed at 3 DIV. […]
[^3H]Dopamine uptake is used as a measure of the health and integrity of dopaminergic neurons in culture (Prochiantz et al., PNAS 76: 5387-5391, 1979). […] Briefly, cells treated with 6-OHDA in the presence and absence of 5-amino-anthra(9,1-cd)isothiazol-6-one were assessed in the uptake assay 22 hrs after exposure to 6-OHDA. […] Radioactivity was removed and the cultures were washed 3× with ice cold PBS. […]

[2] = Brain-blood plasma distribution in vivo; parameters: species or system Sprague-Dawley rats; details: rat, 10 mg/kg intravenously, 2 hr post-dose
Protocol: 5-Amino-anthra(9,1-cd)isothiazol-6-one was administered intravenously (10 mg/kg) into the veins of Sprague-Dawley rats. After 2 hr, blood samples were obtained from the animals and their vascular systems were perfused with approximately 100 mL of saline to rid their brains of blood. The brains were removed from the animals, weighed, and homogenized in a 50 mL conical tube containing 10 equivalents (w/v) of methanol/saline (1:1) using a Tissue Tearer (Fischer Scientific). The homogenized material was extracted by adding 600 μL of cold methanol to 250 μL of brain homogenate vortexed for 30 sec and subjected to centrifugation for 5 min. After centrifugation, 600 μL of the resulting supernatant was transferred to a clean tube and evaporated at room temperature under reduced pressure to provide a pellet. […] The brain homogenate analysis samples, plasma analysis samples, and standard analysis samples were analyzed and compared using HPLC by injecting 100 μL of a sample onto a 5 μm C-18 Luna column (4.6 mm×150 mm, commercially available from Phenomenex of Torrance, Calif.) and eluting at 1 mL/min with a linear gradient of 30% aqueous acetonitrile containing 0.1% trifluoroacetic acid to 90% aqueous acetonitrile containing 0.1% trifluoroacetic acid over 8 minutes and holding at 90% aqueous acetonitrile containing 0.1% trifluoroacetic acid for 3 min. with absorbance detection at 450 nm. […]

[3] = Solubility in aqueous media (remark); format: physicochemical

Nc1ccc2snc3c2c1C(=O)c1ccccc1-3 [5-amino-anthra(9,1-cd)isothiazol-6-one]
protection of dopaminergic neurons from 6-OHDA ([3H]dopamine uptake) [1]: protects rat ventral mesencephalan neurons from the toxic effects of 6-OHDA | brain-drug concentration [2]: approximately 65 nmole/g | solubility in aqueous media [3]: limited solubility

From patent US20060122179A1, “Methods and compositions using JNK inhibitors for treatment and management of central nervous system injury” (priority 2004, published 2006)
